Assay results as given in patent publication US12628858B2, “Therapy for colorectal and small intestine cancers” (Cornell University, priority 2019, dated 2026).

System: Tumors from APC-/- mice
Experiment: 13C isotopic tracing in APC-/- tumors ex vivo (LC-MS/MS)
Format: cell-based, mouse
Settings: 10 min ex vivo

Compound	percentage of fully labeled lactate [%]	F1P 13C-labeled at all six positions (M+6), percentage of labeling [%]
O=[13CH][13C@H](O)[13C@@H](O)[13C@H](O)[13C@H](O)[13CH2]O [^13C-glucose, D-[U-^13C6]-Glucose]	30.2	
O=[13C]([13CH2]O)[13C@@H](O)[13C@H](O)[13C@H](O)[13CH2]O [^13C-fructose, D-[U-^13C6]-Fructose]		47.1
